Experimental data from US20080021042A1, “Composition For Controlling Neuropathic Pain” (priority 2004, published 2008).

Legend:
motor coordination = motor coordination test (mice rotating rod test, Rota-rod); assay type: in vivo, mouse; details: 30 mg/kg orally, 16 rpm, cut-off 60 seconds, FIG. 4
Protocol: The effect of the compound of Example 1 on motor coordination was evaluated by means of mice rotating rod test.
Five male BALB/c, 6-7 weeks old mice per group were used. The mouse was trained for 2 or more days so that it could remain on the Rota-rod treadmill (Ugo Basile) in 3 cm in diameter rotating at 16 rpm for at least 60 seconds when it was placed on the rod with the head directed against the direction of rotation. Before the evaluation, three trials were conducted with 10 min or more intervals and the mice which could remain on the rod more than 60 seconds in all three times were selected for the evaluation. The selected mice were divided into test groups.
The time obtained in the third trial was used as the before administration value. Mice were orally received 30 mg/kg of the compound of Example 1 or gabapentin and placed on the rotating rod. The duration of time the mouse remained on the rod was recorded. A cut-off time of 60 seconds was employed and when an animal could remain more than 60 seconds, the time was recorded as 60 seconds.

neuropathic pain = details: oral administration, in general; cited from earlier work

NCC1(CC(=O)O)CCCCC1 [gabapentin]
duration of time the mouse remained on the rotating rod (motor coordination): no reduction of the remaining time
onset of analgesic action (neuropathic pain): 1 to 2 h
